Entries after “also recorded” stand apart in the source; their conditions may differ.
How the values were obtained:
[1] = Cytotoxicity, Sulforhodamine B assay; type: cell-based, human; details: human, HFF-1 normal foreskin fibroblast cells; HFF-1 proliferation, 48-h incubation, 0.78 μM to 100 μM
Method: Given the significance of a drug candidate’s toxicity in relation to its inhibition potential, a cytotoxicity assay was conducted using Normal Human Foreskin Fibroblasts (HFF-1).
All assays were carried out in triplicate. Cell proliferation was determined by the Sulforhodamine B assay, and the half-maximal cytotoxic concentration (CC50) was determined by Probit analysis.

normoglycemic CD1 mice = assay: Oral glucose tolerance test (OGTT); type: in vivo; details: single intragastric dose 50 mg/kg, glucose 2 g/kg
Method: The studies were carried out on compounds 4b, 4g, and 5g using both normoglycemic CD1 mice and a mouse model of noninsulin-dependent diabetes mellitus (NIDDM). An oral glucose tolerance test (OGTT) was conducted on the normoglycemic mice to evaluate the hypoglycemic activity of the compounds, while an insulin tolerance test (ITT) was performed on hyperglycemic CD1 mice to assess the compounds’ capacity to enhance insulin sensitivity in streptozotocin-induced diabetic mice. Pioglitazone and GA were included as positive controls.
Healthy six-week-old male CD-1 mice, weighing between 30 and 40 g, were maintained at a temperature of 25 ± 2 °C, under a 12-h light/dark cycle and 45–65% humidity throughout the experimental period. The mice were provided with a rodent pelleted diet (Harlan Laboratories, Indianapolis, USA) and had access to water ad libitum. Sixteen hours before the experiment, all mice were fasted but still had free access to water. All animal procedures were conducted in accordance with the Mexican Federal Regulations for Animal Experimentation and Care (SAGARPA, NOM-062-ZOO-1999, Mexico) and received approval from the Institutional Animal Care and Use Committee, following guidelines outlined in the US National Institutes of Health publication (No. 85–23, revised 1985).
Animals were categorized into five groups, each consisting of four mice (n = 4). The experimental groups received an oral suspension of compounds 4b, 4g, and 5g, prepared in a 10% Tween 20/water solution, at a dosage of 50 mg/kg body weight. A control group was treated with only the 10% Tween 20 solution. The final group was administered pioglitazone at a dose of 45 mg/kg, which is recognized as a reference drug for insulin sensitization. To evaluate glucose levels, blood samples were collected from the tails of the mice at 0, 30, 60, 90, and 120 min after the administration of the vehicle, test compound, or drug. Blood glucose concentration was measured using a commercial glucometer (Accu-Chek, Performa; Roche) and the enzymatic glucose dehydrogenase method. The percentage variation in glycemia was calculated by comparing the selected postadministration glycemia (G x ) with the initial value (G0) using the following formula: %variationofglycemia=[(Gx−G0)/G0]×100 where G0 represents the initial glycemia values and Gx indicates the glycemia values at +30, + 60, + 90, and +120 min, respectively.
To determine the hypoglycemic effect of the compounds on nondiabetic animals, the compounds 4b, 4g, and 5g were administered intragastrically. Pioglitazone was used as a positive control. After 30 min, five mice/group (CD-1) were subjected to OGTT. The test was performed using glucose (2 g/kg) as substrate.

hPTP1B1–400 = target: T1, hPTP1B1–400 (Homo sapiens, UniProt P18031); assay: Enzymatic kinetics studies (Lineweaver–Burk, model fitting); type: biochemical; details: for inhibition type: hPTP1B1–400, best fit model; for Ki: hPTP1B1–400, pNPP 0.1–0.5 mM; for Km / Vmax: hPTP1B1–400 with inhibitor
T1 construct: h PTP1B 1–400 IC 50 (μM ± S.D); made in house
T1 sequence (P18031 1-400): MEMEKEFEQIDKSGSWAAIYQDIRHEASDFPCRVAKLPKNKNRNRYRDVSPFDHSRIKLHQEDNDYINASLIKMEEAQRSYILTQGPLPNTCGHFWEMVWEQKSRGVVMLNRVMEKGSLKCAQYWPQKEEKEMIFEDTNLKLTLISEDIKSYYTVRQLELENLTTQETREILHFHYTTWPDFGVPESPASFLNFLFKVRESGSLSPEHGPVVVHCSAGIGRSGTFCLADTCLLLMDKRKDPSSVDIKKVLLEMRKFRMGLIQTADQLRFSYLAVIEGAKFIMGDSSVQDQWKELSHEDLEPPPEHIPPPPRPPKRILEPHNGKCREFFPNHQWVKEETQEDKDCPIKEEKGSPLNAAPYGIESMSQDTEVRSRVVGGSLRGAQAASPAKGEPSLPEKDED
Method: Kinetic analyses were conducted using varying concentrations of substrate and inhibitor.
Five increasing concentrations of each inhibitor were tested, according to their previously determined IC50 values. The negative control was prepared by omitting the inhibitor in the presence of the enzyme and substrate. The Supporting Information includes detailed eqs (E1–E5) used to determine the kinetic parameters and mechanisms involved in PTP1B inhibition.
Equation 1 was used to obtain enzyme kinetic parameters by fitting data to the Michaelis-Menten model (Origin Pro
The equations defined for the following non-linear inhibition models were used to determine the mechanism of
PTP1B inhibition: competitive (E2), non-competitive (E3), uncompetitive (E4), and mixed (E5) (Origin Pro 2018 (64
(1+ ( ))(x05nh ) + (1+ ( )) (x05 nh)
Vmax is the maximum velocity, x is the substrate concentration, i is the inhibitor concentration, nh is the number of
Hill. Ki is the inhibition constant, and Km is the Michaelis constant.

HepG2 cells = assay: Cell viability of HepG2 with crystal violet; type: cell-based, human; details: 1, 10, and 30 µM for 24, 48 and 72 h
Method: A 96-well plate was seeded with 3,000 HepG2 cells per well and incubated for 72 h. Subsequently, the cells were treated with test compounds at various concentrations for 24, 48, and 72 h. After incubation, the medium was removed, and 100 μL of 1% glutaraldehyde was added for 15 min. The glutaraldehyde was then removed, and 50 μL of 0.5% crystal violet (dissolved in 25% methanol) was added for 30 min. The crystal violet staining solution was subsequently removed, and the plate was thoroughly rinsed with tap water. The precipitate was dissolved in a 10% acetic acid solution, mixed for 15 min, and the absorbance was measured at 590 nm using a plate reader (xMark Microplate Spectrophotometer, Bio-Rad).
Figure S48. Cell viability assessment by crystal violet staining. HepG2 cell viability was evaluated after treatment with the respective compounds at concentrations of 1 , 10, and 30 µM for 24 , 48 and 72 hours. Bar graphs represent mean ± SEM. No significant differences were detected using ANOVA. […]

| inhibition type (hPTP1B1–400) | Ki (hPTP1B1–400) | Km (hPTP1B1–400) | Vmax (hPTP1B1–400) | SMILES | CC50 at 48 h [1] | hypoglycemic effect in OGTT (normoglycemic CD1 mice) | HepG2 cell viability (HepG2 cells) |
| --- | --- | --- | --- | --- | --- | --- | --- |
| uncompetitive | 320 ± 50 nM | 760 ± 170 µM | 1.24 ± 0.18 mM/min | CC1(C)c2[nH]c3ccc(OC(F)F)cc3c2C[C@]2(C)[C@H]3C(=O)C=C4[C@@H]5C[C@@](C)(C(=O)O)CC[C@]5(C)CC[C@@]4(C)[C@]3(C)CC[C@@H]12 [compound 4b, (20β)-5′-(Difluoromethoxy)-11-oxo-1′H-oleana-2,12-dieno[3,2-b]indol-29-oic Acid] | 98700 ± 2000 nM | did not cause hypoglycemia | No significant differences; also recorded: did not compromise HepG2 cell viability |
| uncompetitive | 1620 ± 190 nM | 870 ± 130 µM | 1.46 ± 0.15 mM/min | CC1(C)c2[nH]c3ccc(S(N)(=O)=O)cc3c2C[C@]2(C)[C@H]3C(=O)C=C4[C@@H]5C[C@@](C)(C(=O)O)CC[C@]5(C)CC[C@@]4(C)[C@]3(C)CC[C@@H]12 [compound 4g, (20β)-5′-Sulfamoyl-11-oxo-1′H-oleana-2,12-dieno[3,2-b]indol-29-oic Acid] | > 100000 nM | did not cause hypoglycemia | No significant differences |
| uncompetitive | 720 ± 120 nM | 970 ± 200 µM | 1.34 ± 0.21 mM/min | CC1(C)c2c(cnn2-c2ccc(S(N)(=O)=O)cc2)C[C@]2(C)[C@H]3C(=O)C=C4[C@@H]5C[C@@](C)(C(=O)O)CC[C@]5(C)CC[C@@]4(C)[C@]3(C)CC[C@@H]12 [compound 5g, (20β)-11-Oxo-2′-(4-sulfamoylphenyl)-2′H-oleana-2,12-dieno[3,2-c]pyrazol-29-oic Acid] | > 100000 nM | did not cause hypoglycemia | No significant differences; also recorded: did not compromise HepG2 cell viability |
